Results: patent US10988477B2 (Merck Patent GmbH, priority 2018, dated 2021)

Target: GCN2 kinase (Homo sapiens, UniProt Q9P2K8)
Assay: GCN2 enzyme inhibition assay (Transcreener ADP2 fluorescence polarization)
Assay type: biochemical
Conditions: compounds of Formula II; 280 μM ATP, 4 nM GCN2 kinase
Method in brief: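 Human GCN2 (4 nM) preincubated 10 min with compound (0–8 μM) and 200 μM (RS)7 peptide in Tris-HCl pH 7.5, NaCl, MgCl2, DTT. Reaction started with 280 μM ATP, run 1 h at 25 °C. ADP detected by Transcreener fluorescence polarization. IC50 and Ki(app) fitted by tight-binding algorithm.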

GCN2 kinase, sequence (Q9P2K8 whole entry): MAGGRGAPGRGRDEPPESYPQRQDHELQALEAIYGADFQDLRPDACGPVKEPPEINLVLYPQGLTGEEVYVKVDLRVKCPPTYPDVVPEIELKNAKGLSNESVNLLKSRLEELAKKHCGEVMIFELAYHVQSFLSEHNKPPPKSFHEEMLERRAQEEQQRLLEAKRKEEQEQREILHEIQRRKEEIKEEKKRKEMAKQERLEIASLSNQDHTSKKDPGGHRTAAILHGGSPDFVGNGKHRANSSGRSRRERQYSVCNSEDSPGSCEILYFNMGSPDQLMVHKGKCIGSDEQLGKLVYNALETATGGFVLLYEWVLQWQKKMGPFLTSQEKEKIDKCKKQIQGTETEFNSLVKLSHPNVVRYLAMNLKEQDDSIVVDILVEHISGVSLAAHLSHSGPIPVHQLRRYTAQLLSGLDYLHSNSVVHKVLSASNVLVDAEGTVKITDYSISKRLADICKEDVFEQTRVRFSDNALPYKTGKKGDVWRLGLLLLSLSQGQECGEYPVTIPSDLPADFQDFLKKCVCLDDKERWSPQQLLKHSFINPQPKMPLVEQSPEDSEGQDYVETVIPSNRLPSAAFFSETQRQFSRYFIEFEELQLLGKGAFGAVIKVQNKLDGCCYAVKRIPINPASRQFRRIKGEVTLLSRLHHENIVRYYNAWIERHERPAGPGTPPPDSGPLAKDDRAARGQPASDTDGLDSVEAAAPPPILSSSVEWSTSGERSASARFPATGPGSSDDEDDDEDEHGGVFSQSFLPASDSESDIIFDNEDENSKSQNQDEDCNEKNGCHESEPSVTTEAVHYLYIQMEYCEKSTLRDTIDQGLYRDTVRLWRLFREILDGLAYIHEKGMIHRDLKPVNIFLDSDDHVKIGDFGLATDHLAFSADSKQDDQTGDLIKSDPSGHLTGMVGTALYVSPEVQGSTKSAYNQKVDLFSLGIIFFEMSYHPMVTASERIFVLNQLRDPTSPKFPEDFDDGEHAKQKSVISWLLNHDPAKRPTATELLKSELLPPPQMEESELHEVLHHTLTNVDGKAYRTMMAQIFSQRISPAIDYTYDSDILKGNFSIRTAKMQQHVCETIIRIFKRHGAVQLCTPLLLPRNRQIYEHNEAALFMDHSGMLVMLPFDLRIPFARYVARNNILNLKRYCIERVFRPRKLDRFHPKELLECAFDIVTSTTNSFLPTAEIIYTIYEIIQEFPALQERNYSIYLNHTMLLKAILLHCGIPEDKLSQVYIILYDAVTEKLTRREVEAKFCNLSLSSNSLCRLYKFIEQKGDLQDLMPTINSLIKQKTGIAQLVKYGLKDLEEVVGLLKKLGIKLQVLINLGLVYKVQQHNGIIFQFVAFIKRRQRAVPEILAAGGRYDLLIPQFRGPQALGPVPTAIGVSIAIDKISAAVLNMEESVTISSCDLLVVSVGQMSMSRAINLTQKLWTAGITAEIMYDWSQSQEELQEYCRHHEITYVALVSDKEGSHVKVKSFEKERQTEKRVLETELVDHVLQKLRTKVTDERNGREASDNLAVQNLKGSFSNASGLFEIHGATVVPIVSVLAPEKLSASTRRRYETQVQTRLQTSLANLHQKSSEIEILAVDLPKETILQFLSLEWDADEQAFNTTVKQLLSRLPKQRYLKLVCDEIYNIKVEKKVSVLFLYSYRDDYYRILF

| Structure (SMILES) | Ki |
| --- | --- |
| CC1(C)CN(c2cc(-c3cnc4ccc(C(F)F)nn34)ncn2)CC(CNS(C)(=O)=O)N1 (stereo not drawn) [II-569, N-((4-(6-(6-(Difluoromethyl)imidazo[1,2-b]pyridazin-3-yl)pyrimidin-4-yl)-6,6-dimethylpiperazin-2-yl)methyl)methanesulfonamide] | 10 to 1000 nM |
| CCC(NS(C)(=O)=O)C1CN(c2cc(-c3cnc4ccc(C(F)F)nn34)ncn2)CCO1 (stereo not drawn) [II-572, N-(1-(4-(6-(6-(Difluoromethyl)imidazo[1,2-b]pyridazin-3-yl)pyrimidin-4-yl)morpholin-2-yl)propyl)methanesulfonamide] | 10 to 1000 nM |
| Cc1c(CNS(C)(=O)=O)cccc1-c1cc(-c2cnc3ccc(C(F)F)nn23)ncn1 [II-575, N-[[3-[6-[6-(Difluoromethyl)imidazo[1,2-b]pyridazin-3-yl]pyrimidin-4-yl]-2-methyl-phenyl]methyl]methanesulfonamide] | 10 to 1000 nM |
| CC1CC(CO)C(C)N(c2cc(-c3cnc4ccc(C(F)F)nn34)ncn2)C1 (stereo not drawn) [II-577, (1-(6-(6-(Difluoromethyl)imidazo[1,2-b]pyridazin-3-yl)pyrimidin-4-yl)-2,5-dimethylpiperidin-3-yl)methanol] | < 10 nM |
| CC1C(N=S(C)(C)=O)CCCN1c1cc(-c2cnc3ccc(C(F)F)nn23)ncn1 (stereo not drawn) [II-578, ((1-(6-(6-(Difluoromethyl)imidazo[1,2-b]pyridazin-3-yl)pyrimidin-4-yl)-2-methylpiperidin-3-yl)imino)dimethyl-λ^6-sulfanone] | < 10 nM |
| CC1C(N=S(C)(C)=O)CCCN1c1cc(-c2cnc3ccc(C(F)F)nn23)ncn1 (stereo not drawn) [II-579, ((1-(6-(6-(Difluoromethyl)imidazo[1,2-b]pyridazin-3-yl)pyrimidin-4-yl)-2-methylpiperidin-3-yl)imino)dimethyl-λ^6-sulfanone] | 10 to 1000 nM |
| CS(=N)(=O)c1cccc(-c2cc(-c3cnc4ccc(C(F)F)nn34)ncn2)c1 (stereo not drawn) [II-580, (3-(6-(6-(Difluoromethyl)imidazo[1,2-b]pyridazin-3-yl)pyrimidin-4-yl)phenyl)(imino)(methyl)-λ^6-sulfanone] | 10 to 1000 nM |
| CC1C(CN=S(C)(C)=O)CCCN1c1cc(-c2cnc3ccc(C(F)F)nn23)ncn1 (stereo not drawn) [II-584, (((1-(6-(6-(Difluoromethyl)imidazo[1,2-b]pyridazin-3-yl)pyrimidin-4-yl)-2-methylpiperidin-3-yl)methyl)imino)dimethyl-λ^6-sulfanone] | 10 to 1000 nM |
| CC1CC(CS(C)(=O)=O)C(C)N(c2cc(-c3cnc4ccc(C(F)F)nn34)ncn2)C1 (stereo not drawn) [II-587, 6-(Difluoromethyl)-3-[6-[2,5-dimethyl-3-(methylsulfonylmethyl)-1-piperidyl]pyrimidin-4-yl]imidazo[1,2-b]pyridazine] | < 10 nM |
| CC1CC(CS(C)(=O)=O)C(C)N(c2cc(-c3cnc4ccc(C(F)F)nn34)ncn2)C1 (stereo not drawn) [II-588, 6-(difluoromethyl)-3-[6-[2,5-dimethyl-3-(methylsulfonylmethyl)-1-piperidyl]pyrimidin-4-yl]imidazo[1,2-b]pyridazine] | 10 to 1000 nM |
| CS(=O)(=O)NC1CN(c2cc(-c3cnc4ccc(C(F)F)nn34)ncn2)CCC1(F)F (stereo not drawn) [II-589, N-(1-(6-(6-(Difluoromethyl)imidazo[1,2-b]pyridazin-3-yl)pyrimidin-4-yl)-4,4-difluoropiperidin-3-yl)methanesulfonamide] | 10 to 1000 nM |
| CC(=O)N1CCN(c2cc(-c3cnc4ccc(Cl)nn34)ncn2)CC1 [II-590, 1-[4-[6-(6-Chloroimidazo[1,2-b]pyridazin-3-yl)pyrimidin-4-yl]piperazin-1-yl]ethanone] | > 1000 nM |
| CC1CC(CNS(C)(=O)=O)CN(c2cc(-c3cnc4ccc(C(F)F)nn34)ncn2)C1C (stereo not drawn) [II-591, N-((1-(6-(6-(Difluoromethyl)imidazo[1,2-b]pyridazin-3-yl)pyrimidin-4-yl)-5,6-dimethylpiperidin-3-yl)methyl)methanesulfonamide] | < 10 nM |
| CC1CC(CNS(C)(=O)=O)CN(c2cc(-c3cnc4ccc(C(F)F)nn34)ncn2)C1C (stereo not drawn) [II-592, N-((1-(6-(6-(Difluoromethyl)imidazo[1,2-b]pyridazin-3-yl)pyrimidin-4-yl)-5,6-dimethylpiperidin-3-yl)methyl)methanesulfonamide] | < 10 nM |
| CS(C)(=O)=NCc1cccc(-c2cc(-c3cnc4ccc(C(F)F)nn34)ncn2)c1 [II-595, ((3-(6-(6-(Difluoromethyl)imidazo[1,2-b]pyridazin-3-yl)pyrimidin-4-yl)benzyl)imino)dimethyl-λ^6-sulfanone] | 10 to 1000 nM |
| CS(=O)(=O)NC1CN(c2cc(-c3cnc4ccc(C(F)F)nn34)ncn2)CCC1(F)F (stereo not drawn) [II-596, N-(1-(6-(6-(Difluoromethyl)imidazo[1,2-b]pyridazin-3-yl)pyrimidin-4-yl)-4,4-difluoropiperidin-3-yl)methanesulfonamide] | 10 to 1000 nM |
| CS(=O)(=O)NC1CN(c2cc(-c3cnc4ccc(C(F)F)nn34)ncn2)CCC1(F)F (stereo not drawn) [II-597, N-(1-(6-(6-(Difluoromethyl)imidazo[1,2-b]pyridazin-3-yl)pyrimidin-4-yl)-4,4-difluoropiperidin-3-yl)methanesulfonamide] | 10 to 1000 nM |
| CS(=N)(=O)Cc1cccc(-c2cc(-c3cnc4ccc(C(F)F)nn34)ncn2)c1 (stereo not drawn) [II-598, (3-(6-(6-(Difluoromethyl)imidazo[1,2-b]pyridazin-3-yl)pyrimidin-4-yl)benzyl)(imino)(methyl)-λ^6-sulfanone] | 10 to 1000 nM |
| CC1C(NS(C)(=O)=O)CCCN1c1cc(-c2cnc3ccc(C(F)F)nn23)ncn1 (stereo not drawn) [II-600, N-(1-(6-(6-(Difluoromethyl)imidazo[1,2-b]pyridazin-3-yl)pyrimidin-4-yl)-2-methylpiperidin-3-yl)methanesulfonamide] | > 1000 nM |
| CC1C(NS(C)(=O)=O)CCCN1c1cc(-c2cnc3ccc(C(F)F)nn23)ncn1 (stereo not drawn) [II-603, N-(1-(6-(6-(Difluoromethyl)imidazo[1,2-b]pyridazin-3-yl)pyrimidin-4-yl)-2-methylpiperidin-3-yl)methanesulfonamide] | 10 to 1000 nM |
| C[C@H]1C[C@@H](CS(C)(=N)=O)[C@@H](C)N(c2cc(-c3cnc4ccc(C(F)F)nn34)ncn2)C1 (stereo partly drawn) [II-604, (((2R,3R,5S)-1-(6-(6-(Difluoromethyl)imidazo[1,2-b]pyridazin-3-yl)pyrimidin-4-yl)-2,5-dimethylpiperidin-3-yl)methyl)(imino)(methyl)-λ^6-sulfanone] | 10 to 1000 nM |
| C[C@@H]1C[C@H](CS(C)(=N)=O)[C@H](C)N(c2cc(-c3cnc4ccc(C(F)F)nn34)ncn2)C1 (stereo partly drawn) [II-606, (((2S,3S,5R)-1-(6-(6-(Difluoromethyl)imidazo[1,2-b]pyridazin-3-yl)pyrimidin-4-yl)-2,5-dimethylpiperidin-3-yl)methyl)(imino)(methyl)-λ^6-sulfanone] | < 10 nM |
| CC(C)(O)C1CCCN(c2cc(-c3cnc4ccc(C(F)F)nn34)ncn2)C1 (stereo not drawn) [II-608, 2-(1-(6-(6-(Difluoromethyl)imidazo[1,2-b]pyridazin-3-yl)pyrimidin-4-yl)piperidin-3-yl)propan-2-ol] | 10 to 1000 nM |

Next, values leading:

| Ki | Structure (SMILES) |
| --- | --- |
| < 10 nM | CS(=O)(=O)NCC1CN(c2cc(-c3cnc4ccc(C(F)F)nn34)ncn2)C[C@@H]2C[C@H](F)CN12 (stereo partly drawn) [II-568, N-(((7S,8aS)-2-(6-(6-(Difluoromethyl)imidazo[1,2-b]pyridazin-3-yl)pyrimidin-4-yl)-7-fluorooctahydropyrrolo[1,2-a]pyrazin-4-yl)methyl)methanesulfonamide] |
| 10 to 1000 nM | CC1(C)CN(c2cc(-c3cnc4ccc(C(F)F)nn34)ncn2)CC(CNS(C)(=O)=O)N1 (stereo not drawn) [II-570, N-((4-(6-(6-(Difluoromethyl)imidazo[1,2-b]pyridazin-3-yl)pyrimidin-4-yl)-6,6-dimethylpiperazin-2-yl)methyl)methanesulfonamide] |
| 10 to 1000 nM | CCC(NS(C)(=O)=O)C1CN(c2cc(-c3cnc4ccc(C(F)F)nn34)ncn2)CCO1 (stereo not drawn) [II-571, N-(1-(4-(6-(6-(Difluoromethyl)imidazo[1,2-b]pyridazin-3-yl)pyrimidin-4-yl)morpholin-2-yl)propyl)methanesulfonamide] |
| 10 to 1000 nM | CS(C)(=O)=NCC1CCCN(c2cc(-c3cnc4ccc(C(F)F)nn34)ncn2)C1 (stereo not drawn) [II-573, (((1-(6-(6-(Difluoromethyl)imidazo[1,2-b]pyridazin-3-yl)pyrimidin-4-yl)piperidin-3-yl)methyl)imino)dimethyl-λ^6-sulfanone] |
| 10 to 1000 nM | CS(C)(=O)=NCC1CCCN(c2cc(-c3cnc4ccc(C(F)F)nn34)ncn2)C1 (stereo not drawn) [II-574, (((1-(6-(6-(Difluoromethyl)imidazo[1,2-b]pyridazin-3-yl)pyrimidin-4-yl)piperidin-3-yl)methyl)imino)dimethyl-λ^6-sulfanone] |
| < 10 nM | CS(=O)(=O)NCc1cccc(-c2cc(-c3cnc4ccc(C(F)F)nn34)ncn2)c1 [II-576, N-[[3-[6-[6-(Difluoromethyl)imidazo[1,2-b]pyridazin-3-yl]pyrimidin-4-yl]phenyl]methyl]methanesulfonamide] |
| > 1000 nM | CC1C(CN=S(C)(C)=O)CCCN1c1cc(-c2cnc3ccc(C(F)F)nn23)ncn1 (stereo not drawn) [II-583, (((1-(6-(6-(Difluoromethyl)imidazo[1,2-b]pyridazin-3-yl)pyrimidin-4-yl)-2-methylpiperidin-3-yl)methyl)imino)dimethyl-λ^6-sulfanone] |
| 10 to 1000 nM | CS(C)(=O)=Nc1cccc(-c2cc(-c3cnc4ccc(C(F)F)nn34)ncn2)c1 [II-599, [3-[6-[6-(Difluoromethyl)imidazo[1,2-b]pyridazin-3-yl]pyrimidin-4-yl]phenyl]imino-dimethyl-oxo-λ^6-sulfane] |
| < 10 nM | CC1C(NS(C)(=O)=O)CCCN1c1cc(-c2cnc3ccc(C(F)F)nn23)ncn1 (stereo not drawn) [II-601, N-(1-(6-(6-(Difluoromethyl)imidazo[1,2-b]pyridazin-3-yl)pyrimidin-4-yl)-2-methylpiperidin-3-yl)methanesulfonamide] |
| 10 to 1000 nM | C[C@H]1C[C@@H](CS(C)(=N)=O)[C@@H](C)N(c2cc(-c3cnc4ccc(C(F)F)nn34)ncn2)C1 (stereo partly drawn) [II-605, (((2R,3R,5S)-1-(6-(6-(Difluoromethyl)imidazo[1,2-b]pyridazin-3-yl)pyrimidin-4-yl)-2,5-dimethylpiperidin-3-yl)methyl)(imino)(methyl)-λ^6-sulfanone] |
